Marks after values point to notes of the source that are not given here.
What was measured:
[1] = system: freely moving adult male Sprague-Dawley rats; experiment: Whole-body plethysmography of ventilatory parameters in morphine-treated rats
Experimental: Permissions, rats, surgical procedures and blinding of protocols. All studies were carried out in accordance with the NIH Guide for the Care and Use of Laboratory Animals (NIH Publication No. […]) revised in 1996. The protocols were approved by the Animal Care and Use Committees of the University of Virginia, Case Western Reserve University and Loma Linda University. In addition, all studies were carried out in compliance with the ARRIVE (Animal Research: Reporting of In Vivo Experiments) guidelines. Adult male Sprague-Dawley rats (Harlan, Madison, WI, USA) were implanted with jugular vein catheters under 2% isoflurane anesthesia and some rats received femoral arterial catheters. The rats were allowed at least four days to recover from surgery before use. All arterial catheters were flushed daily with heparin solution (50 units of heparin in phosphate-buffered saline at 0.1 M, pH 7.4). All catheters were flushed with phosphate-buffered saline (0.1 M, pH 7.4) approximately four hours before commencement of the experiments. All studies were performed in a quiet laboratory with relative humidity of 49±2% and room temperature of 21.4±0.2° C. […] Also, please note that the antinociception and ventilatory studies were done in separate groups of rats so as to not complicate the respiratory measurements. The recording (plethysmography, antinociception) sessions and the arterial blood gas assays were done by a particular investigator who administered the opioid, vehicle or test drug such as d-cystine diME. The syringes containing the vehicle or test drug were made up by another investigator, such that the investigator running the actual experiment was blinded to the treatment protocol. In every case, the data files resulting from a particular study were first collated and analyzed by another investigator in the group.
Ventilatory parameters were recorded in freely moving rats by whole body plethysmography (PLY3223; Data Sciences International, St. Paul, MN). The rats were placed in individual chambers and given 60 min to acclimatize to allow true resting ventilatory parameters to be established. […] The rats received another injection of vehicle or 1-NACme (500 μmol/kg, IV) 15 min later and ventilatory parameters were recorded for a further 60 min.
The provided software (Fine Pointe, BUXCO) constantly corrected digitized values for changes in chamber temperature and humidity. Pressure changes associated with the respiratory waveforms were then converted to volumes (i.e., TV, PIF and PEF) using the algorithm of Epstein and colleagues. Specifically, factoring in chamber temperature and humidity, the cycle analyzers filtered the acquired signals, and BUXCO algorithms (Fine Pointe) generated an array of box flow data that identified a waveform segment as an acceptable breath. From that data vector, the minimum and maximum values were determined. Flows at this point were considered to be “box flow” signals.
The recorded data (1 min bins) and derived parameters, Vt/Ti and Response Area (cumulative percent changes from pre-values) were taken for statistical analyses. The pre-drug 1 min bins excluded occasional marked deviations from resting due to movements or scratching by the rats. These exclusions ensured accurate determinations of baseline parameters. The data are presented as mean±SEM. All data unless other-wise stated (see immediately below) were analyzed by one-way or two-way analysis of variance followed by Student's modified t test with Bonferroni corrections for multiple comparisons between means using the error mean square terms from each ANOVA. A value of P<0.05 denoted the initial level of statistical significance that was modified according to the number of comparisons between means.

[2] = system: freely moving rats; experiment: Arterial blood-gas chemistry and A-a gradient in morphine-treated rats; format: in vivo, rat; settings: for deleterious effects of morphine on ABG chemistry and A-a gradient after prior infusion: prior infusion 14.3 μmol/kg/min, total 500 μmol/kg i.v. over 35 min, morphine 10 mg/kg i.v.; for deleterious actions of morphine on ABG chemistry and A-a gradient: bolus 500 μmol/kg i.v. after morphine 10 mg/kg i.v., Example 1
[3] = system: rats; experiment: Hemodynamics (preliminary toxicology); format: in vivo, rat; settings: 500 μmol/kg, i.v.
Description: FIGS. 11(A-C) illustrate plots showing the effects of test agents (500 μmol/kg, i.v.) on hemodynamic variables. Data are presented mean±SEM (n=8 rats per group).

[4] = system: conscious male adult Sprague-Dawley rats; experiment: Plethysmographic ventilatory responses to test compounds in conscious rats; format: in vivo, rat; settings: 500 μmol/kg, i.v., FIG. 2
[5] = system: adult male rats; experiment: Hargreaves Hind-paw Latency Test, morphine 1 mg/kg; format: in vivo, rat; settings: for Hargreaves hind-paw withdrawal latency: FIG. 24 study
[6] = system: adult male rats; experiment: Von Frey Test, morphine 1 mg/kg; format: in vivo, rat; settings: for force needed to initiate hind-paw withdrawal (Von Frey): FIG. 25 study
[7] = system: conscious rats; experiment: Morphine-induced analgesia (paw withdrawal latency assay), Example 1; format: in vivo, rat; settings: pretreatment 500 μmol/kg i.v.; morphine 5 mg/kg i.v.
[8] = system: freely moving rats; experiment: Tail-flick latency (TFL) test; format: in vivo, rat
[9] = two injections of L-NACme 500 μmol/kg IV after morphine 10 mg/kg IV
[10] = 500 μmol/kg IV with morphine sulfate 1.0 mg/kg IV
[11] = 500 μmol/kg IV, tested 20 to 30 min post-injection

## CCOC(=O)[C@@H](N)CS [L-CYSee, L-Cysteine ethyl ester]
[1]; prior infusion 14.3 μmol/kg/min, total 500 μmol/kg i.v. over 35 min, conscious rats
  peak inspiratory flow and respiratory drive (Vt/Ti) during infusion: dramatically increased
[1]; prior infusion total 500 μmol/kg i.v. over 35 min, morphine 10 mg/kg i.v.
  subsequent effects of a bolus injection of morphine on ventilation: markedly blunted
[1]; subsequent injection 250 μmol/kg/min as printed, morphine 10 mg/kg i.v.
  effect of a subsequent injection after infusion and morphine: prompt beneficial effects
[2]
  deleterious effects of morphine on ABG chemistry and A-a gradient after prior infusion: virtually eliminated
[3]
  cardiac output and heart rate: decreases
  hemodynamic responses (FIG. 11): minimal responses
  mean arterial blood pressure (MAP): substantial transient decreases
  total peripheral resistance: no changes

## COC(=O)[C@H](CS)NC(C)=O [L-NACme, L-N-acetylcysteine methylester]
[4]
  total ventilatory responses recorded over the 30 min post-injection period (% baseline), comparison of efficacy: comparatively minor effects
[1]; 2×500 μmol/kg, IV, morphine 10 mg/kg
  effects on morphine-induced changes in Freq, TV and MV: only minor effects
[1]; [9]
  Frequency: Drug - entire 75 min, % change: +11 ± 2 %
  Minute Ventilation: Drug - entire 75 min, % change: −19 ± 4 %
  Tidal Volume: Drug - entire 75 min, % change: −22 ± 3 %

## COC(=O)[C@@H](N)CS [L-CYSme, L-cysteine methylester]
[4]
  total ventilatory responses recorded over the 30 min post-injection period (% baseline), comparison of efficacy: as efficacious as L-CYSee

## COC(=O)[C@@H](N)CSSC[C@H](N)C(=O)OC [L-cystine diME]
[5]; [10]
  effect on the antinociception actions of morphine (Hargreaves): neither thiolester affected
[5]; [11]
  thermal nociception (Hargreaves Testing) when given alone: neither d-cystine diME nor L-cystine diME affected
[5]; L-cystine diME plus morphine
  Hargreaves hind-paw withdrawal latency: 18.5 ± 1.1 s
[5]; given alone, L-cystine diME 500 μmol/kg IV, morphine sulfate 1 mg/kg IV
  Hargreaves hind-paw withdrawal latency: 12.0 ± 0.5 s
[5]; morphine+L-cystine diME
  Hargreaves hind-paw withdrawal latency: 17.2 ± 0.9 s
[6]; [10]
  effect on the antinociception actions of morphine (Von Frey): neither thiolester affected
[6]; [11]
  mechanical allodynia (Von Frey Testing) when given alone: neither d-cystine diME nor L-cystine diME affected
[6]; L-Cystine diME+morphine
  force needed to initiate hind-paw withdrawal (Von Frey): 87.3 ± 4.2 g
[6]; given alone, L-cystine diME 500 μmol/kg IV, morphine 1 mg/kg IV
  force needed to initiate hind-paw withdrawal (Von Frey): 51.0 ± 7.6 g
[6]; morphine+L-Cystine diME
  force needed to initiate hind-paw withdrawal (Von Frey): 86.9 ± 5.2 g

## N[C@H](CS)C(=O)O [D-cysteine]
[2]
  deleterious actions of morphine on ABG chemistry and A-a gradient: minimal effects

## CCOC(=O)[C@H](N)CS [D-CYSee, D-Cysteine ethyl ester]
[4]
  total ventilatory responses recorded over the 30 min post-injection period (% baseline), comparison of efficacy: more efficacious that L-CYSee/L-CYSme
[1]; bolus 500 μmol/kg i.v. (D-CYSee 2×500 μmol/kg) after morphine 10 mg/kg i.v., conscious rats, Example 1
  ventilatory depressant effects of morphine incl. tidal volume/inspiratory time (Vt/Ti): sustained reversal
[2]
  deleterious actions of morphine on ABG chemistry and A-a gradient: sustained reversal
[7]
  decay of morphine analgesia: decayed more quickly
  initial level of analgesia (paw withdrawal latency) elicited by morphine: did not affect

## N[C@H](CSSC[C@@H](N)C(=O)O)C(=O)O [D-Cystine, D-cystine]
[1]; rat, in vivo
  Frequency: Drug - entire 75 min, % change: +4.5 ± 3.3%
  Frequency: Drug - last 15 min, % change: +14.3 ± 2.8*^,† %
  Frequency: Drug maximum, % change: −1.2 ± 2.1%
  Minute Ventilation: Drug - entire 75 min, % change: −19 ± 5 %
  Minute Ventilation: Drug - last 15 min, % change: −2 ± 4*^,† %
  Minute Ventilation: Drug maximum, % change: −4.4 ± 2.5%
  Tidal Volume: Drug - entire 75 min, % change: −22 ± 4 %
  Tidal Volume: Drug - last 15 min, % change: −12 ± 2*^,† %
  Tidal Volume: Drug maximum, % change: +3.4 ± 2.2%
  immediate effects on Freq, TV or MV: did not elicit immediate effects
  return of Freq, TV and MV toward pre-morphine levels versus vehicle-treated rats: returned toward pre-morphine levels more quickly
[2]
  deleterious actions of morphine on ABG chemistry and A-a gradient: minor delayed effects
[2]; freely moving rats, morphine 10 mg/kg IV, then drug 500 μmol/kg IV 15 min later, FIG. 18
  changes in ABG chemistry (pH, pCO2, pO2 and sO2): returned toward pre-injection levels faster
[2]; freely moving rats, morphine 10 mg/kg IV, then drug 500 μmol/kg IV 15 min later, FIG. 19
  changes in A-a gradient: returned toward pre-injection levels
[8]; 10 min-post drug (time −10 min), D-cystine 500 μmol/kg IV alone
  Tail-Flick latency: 3.3 ± 0.4 s
[8]; 20 min post-drug (time 0), D-cystine 500 μmol/kg IV alone
  Tail-Flick latency: 3.2 ± 0.4 s
[8]; drug 500 μmol/kg IV 20 min before morphine 10 mg/kg IV
  antinociceptive effects of morphine (TFL) in drug-pretreated rats: also enhanced
[8]; post-morphine - 30 min, D-cystine 500 μmol/kg IV pretreated, morphine 10 mg/kg IV
  Tail-Flick latency: 12 ± 0.0 s
[8]; post-morphine - 60 min, D-cystine 500 μmol/kg IV pretreated, morphine 10 mg/kg IV
  Tail-Flick latency: 12 ± 0.0 s
[8]; post-morphine - 90 min, D-cystine 500 μmol/kg IV pretreated, morphine 10 mg/kg IV
  Tail-Flick latency: 12 ± 0.0 s
[8]; post-morphine - 120 min, D-cystine 500 μmol/kg IV pretreated, morphine 10 mg/kg IV
  Tail-Flick latency (sec): 12 ± 0.0*^,† sec
[8]; post-morphine - 180 min, D-cystine 500 μmol/kg IV pretreated, morphine 10 mg/kg IV
  Tail-Flick latency (sec): 10.7 ± 0.3*^,† sec
[8]; post-morphine - 210 min, D-cystine 500 μmol/kg IV pretreated, morphine 10 mg/kg IV
  Tail-Flick latency (sec): 7.4 ± 0.3*^,† sec
[8]; post-morphine - 240 min, D-cystine 500 μmol/kg IV pretreated, morphine 10 mg/kg IV
  Tail-Flick latency: 5.0 ± 0.3 s
[8]; post-morphine - 360 min, D-cystine 500 μmol/kg IV pretreated, morphine 10 mg/kg IV
  Tail-Flick latency: 3.5 ± 0.3 s

## CCOC(=O)[C@@H](N)CO [L-SERee, L-serine ethyl ester]
[4]
  total ventilatory responses recorded over the 30 min post-injection period (% baseline), comparison of efficacy: minimally active
[2]
  deleterious effects of morphine on ABG chemistry and A-a gradient after prior infusion: without effect

From patent US12083089B2, “Compositions and methods for stimulating ventilatory and/or respiratory drive” (CASE WESTERN RESERVE UNIVERSITY, priority 2015, dated 2024)
